Results taken from patent publication US5089623A, “Certain imidate insecticides” (Imperial Chemical Industries Plc, priority 1990, dated 1992).

Columns and labels:
Assay type in all cases: in vivo
[1] = system: Housefly [Musca domestica]; test: Housefly insecticidal test (HF); conditions: per 25 female houseflies, 48 hours
[2] = system: Tobacco Budworm [Heliothis virescens (Fabricius)] eggs; test: Tobacco budworm egg test (TBW-E); conditions: percent in solution
[3] = system: Cabbage Looper [Trichoplusia ni (Hubner)]; test: Cabbage looper test (CL); conditions: second-instar larvae, 3-5 days, percent in solution
[4] = system: Aster Leafhopper [Macrosteles fascifrens (Stal)]; test: Aster leafhopper test (LH); conditions: adults/nymphs, 48 hours, percent in solution
[5] = system: Maize weevil [Sitophilus Zeamais (Motschulsky)]; test: Maize weevil test (MW); conditions: adult weevils, treated corn seeds, 48 hours, percent in solution
Procedure, shortened: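 Adult weevils (10) were placed with four corn seeds that had been dipped 2-3 s in compound dissolved in 50:50 acetone:water, then dried, and held at about 25° C. Mortality was scored at 48 h. LC50 was taken from dosage-mortality curves and expressed as percent compound in solution, from a 0.01% top concentration.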

[6] = system: Rice water weevil [Lissorhoptrus oryzophilus (Kuschel)]; test: Rice water weevil test (RWW); conditions: per weevil, topical, female adults, 48 hours
Procedure: (§1) The compounds in Tables 1 and 2 above were tested for insecticidal activity using the following testing procedures. LC50 values, based on the results of these tests and calculated according to dosage-mortality curves, are expressed in Table 3.
Rice water weevil [Lissorhoptrus oryzophilus (Kuschel)]
Test compounds were diluted in acetone. Droplets (1 ul) of test solutions were applied to the ventral abdomens of ten female adult weevils. The treated weevils were placed in containers with wet cotton balls and rice foliage. The containers were covered and kept at a temperature of about 25° C. Mortality was recorded after 48 hours. […] The LC50 values are expressed below in Table 3 under the heading "RWW" in terms of μg of test compound per weevil.

[7] = system: Tobacco Budworm [Heliothis virescens (Fabricius)]; test: Tobacco budworm contact test (TBW-C); conditions: second-instar larvae, 5 days, percent in solution
Procedure, shortened: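 Cotton cotyledons dipped 2–3 s in compound in 50:50 acetone–water, dried, then infested with 5 second-instar larvae and held 5 days at high humidity before scoring mortality.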

[8] = system: Beet Armyworm (Spodoptera exigua); test: Beet armyworm test (BAW)
Procedure: as §1
Beet Armyworm (Spodoptera exigua)
Test compounds were diluted in a 50-50 acetone-water solution. Young leaves of sugar beets (Beta vulgaris) were immersed in the test solutions for 2-3 seconds and placed on a wire screen to dry. The dried leaves were placed in petri dishes containing a moistened filter paper and infested with five second-instar beet armyworm larvae. The dishes were placed in a high humidity chamber. Mortality of the larvae was recorded five days later. Test concentrations ranged from 0.1% downward. The LC-50 values are expressed below in Table 3 under the heading "BAW" in terms of percent of the test compound in solution.

[9] = second-instar larvae, five days, percent in solution

SMILES | LC50 HF [1] [µg] | LC50 TBW E [2] [%] | LC50 CL [3] [%] | LC50 LH [4] [%] | LC50 MW [5] [%] | LC50 RWW [6] [µg] | LC50 TBW C [7] [%] | LC50 BAW ([8]; 120 h) [%] | LC50 BAW [8, 9] [%]
CC(C)C(=Nc1ccc(C(F)(F)F)cc1)OCc1cccc(Oc2ccccc2)c1 [Compound 68] | 37 | 0.009 | 0.006 | 0.0001 | > 0.01 | 0.15 |  |  | 
CC(C)C(=Nc1cc(F)cc(C(F)(F)F)c1)OCc1cccc(Oc2ccccc2)c1 [Compound 77] | 10 | 0.03 | 0.0005 | 0.0002 | > 0.01 |  | 0.0004 | 0.0004 | 
CCC(=Nc1ccc(F)c(Cl)c1)OCc1cccc(Oc2ccccc2)c1 [Compound 85] | 7 | > 0.1 | 0.004 | 0.003 | > 0.01 | > 2.5 |  |  | 
Fc1ccc(N=C(OCc2cccc(Oc3ccccc3)c2)C2CC2)cc1Cl [Compound 113] | 15 | 0.1 | 0.005 |  |  | > 2.5 |  |  | 
CC(C)C(=Nc1ccc(F)c(Cl)c1)OCc1cccc(Oc2cccc(F)c2)c1 [Compound 125] | 12 | 0.025 | 0.0007 | > 0.05 | > 0.01 | > 2.5 |  |  | 
CC(C)C(=Nc1ccc(C(C)C)cc1)OCc1cccc(Oc2ccccc2)c1 [Compound 144] | 100 | 0.05 | 0.002 | 0.0006 | > 0.01 |  | 0.006 |  | > 0.01
CC(C)C(=Nc1ccc2c(c1)OCO2)OCc1cccc(Oc2ccc(F)cc2)c1 [Compound 176] | 1.8 | 0.05 | 0.0005 | > 0.05 | 0.009 |  | 0.002 |  | 0.0035
CC(C)C(=Nc1ccc(F)c(Cl)c1)OCc1cc(Oc2ccc(F)cc2)ccc1F [Compound 230] | 36 | 0.1 | 0.0004 |  | 0.038 | > 2.5 |  |  | 
CC(C)C(=Nc1ccc(F)c(Br)c1)OCc1cccc(Oc2ccccc2)c1 [Compound 254] | 6 | 0.026 | 0.001 |  |  | > 2.5 |  |  | 
CC(C)C(=Nc1ccc(F)c(Cl)c1)OCc1cccc(Oc2ccc(F)cc2)c1F [Compound 262] | 26 | > 0.1 | 0.0004 |  | 0.005 | > 2.5 |  |  | 
CC(C)C(=Nc1cccc(C(F)(F)F)c1)OCc1ccc(F)c(Oc2ccc(F)cc2)c1 [Compound 268] | 4 | 0.023 | 0.000025 | 0.0005 | > 0.01 |  | 0.0005 |  | 0.001
CC(C)C(=Nc1cccc(Cl)c1)OCc1cccc(Oc2ccc(Cl)cc2)c1 [Compound 270] | 12 | > 0.01 | 0.00025 | 0.003 | > 0.01 |  | > 0.0015 |  | 0.005
CC(C)C(=Nc1cccc(I)c1)OCc1ccc(F)c(Oc2ccc(F)cc2)c1 [Compound 279] | 4 | 0.016 | 0.00008 | 0.0003 | > 0.01 |  | 0.007 |  | 0.0025
CC(C)(F)C(=Nc1ccc(F)c(Cl)c1)OCc1ccc(F)c(Oc2ccc(F)cc2)c1 [Compound 310] | 4.5 | 0.015 | 0.00006 |  |  | > 2.5 |  |  | 
CC(C)C(=Nc1ccc(C(F)(F)F)cc1)OCc1ccc(F)c(Oc2ccc(F)cc2)c1 [Compound 314] | 21 | 0.012 | 0.00005 |  |  | 0.11 |  |  | 
CC(C)C(=Nc1ccc(OC(F)(F)F)cc1)OCc1ccc(F)c(Oc2ccc(F)c(F)c2)c1 [Compound 347] | 30 | > 0.1 | 0.000075 | 0.0002 | > 0.01 |  | 0.0001 |  | 0.00075

SMILES | LC50 HF [1] [µg] | LC50 TBW E [2] [%] | LC50 CL [3] [%] | LC50 LH [4] [%] | LC50 MW [5] [%] | LC50 RWW [6] [µg] | LC50 TBW C [7] [%] | LC50 BAW ([8]; 120 h) [%] | LC50 BAW [8, 9] [%]
CC(C)C(=Nc1ccc(F)c(F)c1F)OCc1cccc(Oc2ccc(F)cc2)c1 [Compound 348] | 8 | > 0.1 | 0.0002 | 0.05 | > 0.01 |  | 0.00075 |  | > 0.1
CCOc1ccc(N=C(OCc2ccc(F)c(Oc3ccc(Cl)cc3)c2)C(C)C)cc1Cl [Compound 369] | > 100 | > 0.1 | 0.0016 |  | > 0.01 | > 2.5 |  |  | 
CCOc1ccc(N=C(OCc2ccc(F)c(Oc3ccccc3)c2)C(C)C)cc1Cl [Compound 370] | < 100 | 0.02 | 0.00034 |  | > 0.01 | > 2.5 |  |  | 
CC(C)C(=Nc1cccc(F)c1)OCc1ccc(F)c(Oc2ccc(Cl)cc2)c1 [Compound 375] | 7.9 | 0.04 | > 0.1 |  | > 0.01 | > 2.5 |  |  | 
CC(C)C(=Nc1ccc(Cl)c(Cl)c1)OCc1ccc(F)c(Oc2ccccc2)c1 [Compound 376] | 17 | 0.02 | 0.00037 |  | 0.0061 | 0.1 |  |  | 
CC(C)C(=Nc1ccc(C(F)(F)F)c(Br)c1)OCc1ccc(F)c(Oc2ccc(Cl)cc2)c1 [Compound 377] | < 100 | > 0.1 | 0.00062 |  | > 0.01 | > 2.5 |  |  | 
CC(C)C(=Nc1ccc(Br)cc1)OCc1ccc(F)c(Oc2ccc(Cl)cc2)c1 [Compound 378] | < 100 | 0.02 | 0.00034 |  | > 0.01 | > 2.5 |  |  | 
CC(C)C(=Nc1ccc(Br)c(Cl)c1)OCc1cccc(Oc2ccc(Cl)cc2)c1 [Compound 380] | > 100 | > 0.1 | > 0.1 |  | > 0.01 | > 2.5 |  |  | 
CC(C)C(=Nc1ccc(Br)c(Cl)c1)OCc1ccc(F)c(Oc2ccc(Cl)cc2)c1 [Compound 381] | < 100 | 0.018 | 0.00092 |  | > 0.01 | > 2.5 |  |  | 
CC(C)C(=Nc1ccc(Br)c(Cl)c1)OCc1ccc(F)c(Oc2ccc(F)cc2)c1 [Compound 382] | < 100 | 0.027 | 0.00029 |  | > 0.01 | > 2.5 |  |  | 
CC(C)C(=Nc1cccc(Br)c1)OCc1ccc(F)c(Oc2ccccc2)c1 [Compound 387] | < 100 | 0.05 | 0.0012 |  | > 0.01 | > 2.5 |  |  | 
CC(C)C(=Nc1ccc(Cl)cc1)OCc1ccc(F)c(Oc2ccc(Cl)cc2)c1 [Compound 391] | < 100 | 0.035 | 0.00029 |  |  | > 2.5 |  |  | 
C=C(C)C(=Nc1ccc(C(F)(F)F)cc1)OCc1ccc(F)c(Oc2ccccc2)c1 [Compound 431] | 9.8 | 0.025 | 0.00017 |  | 0.0037 | 0.084 |  |  | 
CC(C)C(=Nc1ccc(C(F)(F)F)c(Br)c1)OCc1ccc(F)c(Oc2ccc(Cl)cc2)c1 [Compound 433] | < 100 | 0.02 | 0.00017 |  | 0.005 | 0.078 |  |  | 
CC(C)C(=Nc1ccc(Cl)c(OCC(F)(F)F)c1)OCc1ccc(F)c(Oc2ccc(Cl)cc2)c1 [Compound 452] | > 100 | < 0.1 | 0.0017 |  | > 0.01 | 0.1 |  |  | 
